Experimental findings from BindingDB's records for doi:10.1021/jm9604890 (University of Groningen, 1997) are described below.

Molecules are shown by their SMILES. pKi: −log10 of the molar value.

The assay is described as follows: Compound was tested for intrinsic efficacy against human 5-hydroxytryptamine 1D receptor alpha measured as the reduction of forskolin-stimulated cAMP.

In turn, `NCCc1c[nH]c2ccc(OS(=O)(=O)C(F)(F)F)cc12` [Trifluoro-methanesulfonic acid 3-(2-amino-ethyl)-1H-indol-5-yl ester] gave a pKi of 7.72.

In the case of `CN(C)CCc1c[nH]c2ccc(OS(=O)(=O)C(F)(F)F)cc12` [Trifluoro-methanesulfonic acid 3-(2-dimethylamino-ethyl)-1H-indol-5-yl ester], the pKi was 7.52. Against the preceding molecule, the pKi is 0.20 log units lower.

As to `CCCN(CCC)CCc1c[nH]c2ccc(OS(=O)(=O)C(F)(F)F)cc12` [Trifluoro-methanesulfonic acid 3-(2-dipropylamino-ethyl)-1H-indol-5-yl ester], the pKi is 7.44.

In general, pKi refers to −log10 of the Ki, conventionally taken in molar units. A higher pKi goes with a low Ki.
